Source: US20130252821A1, “METHODS AND COMPOSITIONS FOR THE TREATMENT AND DIAGNOSIS OF DISEASES CHARACTERIZED BY VASCULAR LEAK, HYPOTENSION, OR A PROCOAGULANT STATE” (Beth Israel Deaconess Medical Center, Inc., priority 2005, published 2013)

Test system: VEGF
Assay: Serial free VEGF levels in patients on HD IL-2
Type: in vivo, human
Settings: four patients, single bevacizumab infusion two weeks prior to HD IL-2
From the text: Over a 6 month period at Beth Israel Deaconess Medical Center we prospectively collected discarded serum and plasma samples from oncology patients receiving high dose IL-2. […] After detailing these promising results, we then collected bloods before IL-2 infusion and with each successive days morning labs. Whenever possible, we also obtained discarded blood from all follow up outpatient appointments. All identifying information was removed and data was encoded to protect patient privacy. Clinical data was collected on each patient by chart review. This study was approved by the institutional IRB.

In the case of “bevacizumab: a neutralizing antibody to VEGF”, the “free VEGF levels” value is reported as “low throughout protocol”.
